Experimental data from US20230115176A1 (Ra Pharmaceuticals, Inc., priority 2019, published 2023).
In brackets after ≈: the same amount, converted by molar mass. Read-outs that look alike come from different tables or passages of the source.

Experiments:
purified human C5 = purified human C5 (Homo sapiens, UniProt P01031); assay: Red blood cell (RBC) hemolysis assay, optical, absorbance 412 nm (Example 10, Table 19); assay type: cell-based; conditions: antibody-sensitized sheep erythrocytes, […] human C5 depleted sera
Sequence of purified human C5 (P01031 19-1676): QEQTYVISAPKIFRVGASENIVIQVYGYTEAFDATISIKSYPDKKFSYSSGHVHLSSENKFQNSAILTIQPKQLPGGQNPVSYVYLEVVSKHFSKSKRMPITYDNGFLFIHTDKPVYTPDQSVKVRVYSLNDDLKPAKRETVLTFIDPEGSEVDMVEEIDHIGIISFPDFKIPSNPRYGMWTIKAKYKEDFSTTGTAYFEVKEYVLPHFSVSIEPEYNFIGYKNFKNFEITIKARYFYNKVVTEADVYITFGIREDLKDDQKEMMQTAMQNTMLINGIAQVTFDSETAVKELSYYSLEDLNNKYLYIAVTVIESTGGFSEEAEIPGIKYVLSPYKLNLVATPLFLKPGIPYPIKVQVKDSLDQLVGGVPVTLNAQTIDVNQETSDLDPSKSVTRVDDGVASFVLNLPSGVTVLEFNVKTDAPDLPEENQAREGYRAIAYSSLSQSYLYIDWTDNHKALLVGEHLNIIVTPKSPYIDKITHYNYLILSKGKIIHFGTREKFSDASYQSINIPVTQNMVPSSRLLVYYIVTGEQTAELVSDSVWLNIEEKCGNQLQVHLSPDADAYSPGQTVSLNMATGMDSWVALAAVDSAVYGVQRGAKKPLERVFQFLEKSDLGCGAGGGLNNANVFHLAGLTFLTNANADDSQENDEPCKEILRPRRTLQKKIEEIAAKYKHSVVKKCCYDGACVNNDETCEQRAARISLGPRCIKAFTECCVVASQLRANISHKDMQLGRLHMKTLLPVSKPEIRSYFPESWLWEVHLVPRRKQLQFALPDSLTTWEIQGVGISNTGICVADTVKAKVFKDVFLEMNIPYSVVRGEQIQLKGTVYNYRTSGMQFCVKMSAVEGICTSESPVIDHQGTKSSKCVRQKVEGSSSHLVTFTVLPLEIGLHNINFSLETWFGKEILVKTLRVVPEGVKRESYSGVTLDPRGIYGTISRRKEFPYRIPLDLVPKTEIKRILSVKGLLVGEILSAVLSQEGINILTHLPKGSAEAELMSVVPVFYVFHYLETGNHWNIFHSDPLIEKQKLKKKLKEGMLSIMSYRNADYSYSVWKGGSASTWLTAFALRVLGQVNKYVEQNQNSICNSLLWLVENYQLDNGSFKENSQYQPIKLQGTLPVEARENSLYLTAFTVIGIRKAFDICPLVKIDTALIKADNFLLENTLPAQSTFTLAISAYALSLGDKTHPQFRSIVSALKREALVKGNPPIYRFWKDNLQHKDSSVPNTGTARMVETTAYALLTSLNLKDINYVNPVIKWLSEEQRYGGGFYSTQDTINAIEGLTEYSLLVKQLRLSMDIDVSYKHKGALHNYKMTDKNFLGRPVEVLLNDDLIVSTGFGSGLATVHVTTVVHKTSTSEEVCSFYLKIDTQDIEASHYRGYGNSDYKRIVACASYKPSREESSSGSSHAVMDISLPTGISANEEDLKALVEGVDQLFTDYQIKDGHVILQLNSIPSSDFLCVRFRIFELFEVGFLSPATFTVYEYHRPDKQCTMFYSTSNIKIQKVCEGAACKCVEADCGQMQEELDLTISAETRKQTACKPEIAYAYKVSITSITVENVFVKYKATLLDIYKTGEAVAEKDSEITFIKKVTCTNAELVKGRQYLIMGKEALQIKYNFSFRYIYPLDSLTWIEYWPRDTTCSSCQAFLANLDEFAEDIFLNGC

Human C5 [1] = biological target: T1, Human C5 (Homo sapiens, UniProt P01031); assay: Surface plasmon resonance (SPR), immobilized human C5 (Example 9, Table 18); assay type: binding
T1 construct: purchased Complement Technology
T1 sequence (P01031 19-1676): as above
Source text: Morrison and Boyd in “Organic Chemistry”, 6th edition, Prentice Hall (1992)] and validated for proper structure by mass spectrometry.

Human C5 [2] = biological target: T1, Human C5; assay: Red blood cell (RBC) hemolysis assay, luminescent (Example 28, Table 32); assay type: cell-based; conditions: sheep EA cells, 1.5% C5-depleted human serum, 0.5 nM human C5, 1 hour at 37° C., luminescence (Table 32)
[3] = Kinetic solubility in PBS pH 7.4, HPLC-UV (Example 21, Table 27); assay type: physicochemical; conditions: phosphate buffered saline, aqueous buffer, kinetic from dmso stock, 0.5 M PBS, shaken minimum 24 h at approximately 25° C., HPLC-UV 270 nm
Description: Compounds were analyzed for kinetic solubility values using a standard kinetic solubility assay format. First, test compounds were dissolved in DMSO (Aldrich Chemical Co., Milwaukee, Wis., USA) at a concentration of 0.010 mol/L and used to prepare standard calibrators in DMSO solution. 500.0 μM, 250.0 μM, 125.0 μM, 62.5 μM, 31.2 μM, and 15.6 μM standards were prepared in a Greiner UV-Star clear V-bottom 96-well plate (Greiner-Bio One, Germany) for generating a standard curve. Using Alfa Aesar's Sodium phosphate, 0.2 M buffer solution, pH 7.4 (Alfa Aesar, Haverhill, Mass., USA), aqueous phosphate buffered saline (PBS) was prepared by diluting with Milli-Q water for a final concentration of 0.05 M. The pH of the solution was adjusted to 7.4±0.1 using 0.1 M hydrochloric acid (Fisher Scientific Waltham, Mass., USA) or 0.1 M aqueous sodium hydroxide (Fisher Scientific Waltham, Mass., USA).
10 μL of 0.010 mol/L DMSO test compound stock solutions were pipetted to separate 1.5 mL centrifuge tubes in triplicate. To these tubes, 190 μl of 0.05 M PBS was added. Each tube was gently vortexed for 5 sec. The tubes were shaken for a minimum of 24 h at approximately 25° C. After shaking, the solutions were transferred to 0.5 mL centrifuge filter tubes (MilliporeSigma, Burlington, Mass., USA) and centrifuged at 10,000 rpm for 5 min. After centrifugation, supernatants were collected and used for compound concentration analysis.
Compound concentrations in each solution were determined using high pressure liquid chromatography (HPLC) with ultraviolet (UV) detection and comparison with external standards. For HPLC, a Waters Acquity CSH Phenyl-Hexyl column (2.1 mm×50 mm, 1.7 μm) was used together with a generic gradient method on a Waters H-class system equipped with a diode array detector: Solvent A=0.1% formic acid in water, Solvent B=0.1% formic acid in acetonitrile (MilliporeSigma, Burlington, Mass., USA), flow=0.65 mL/min, (t=0 min: 95% A-5% B, t=4.75 min: 0% A-100% B, t=4.85 min: 0% A-100% B, t=4.86 min: 95% A-5% B, t=5 min: 95% A-5% B). UV quantifications were performed at 270 nm. Solution concentrations were calculated using Microsoft Excel.

[4] = 0.5 nM purified human C5, absorbance 412 nm, read-out: RBC Hemolysis IC50
[5] = immobilized human C5, equilibrium dissociation constant, read-out: SPR C5 EQ KD

| Kd (Human C5 [1]; [5]) | Compound | IC50 (purified human C5; [4]) | also measured |
| --- | --- | --- | --- |
| 0.075 µM | COc1ccc(NC(=O)NCc2ccc3c(c2)OCCO3)cc1OCCCC(C)C [Compound C5INH-0340] | 0.992 µM | – |
| 0.18 µM | COc1ccc(NC(=O)NCc2cccc(CO)c2)cc1OCCCC(C)C [Compound C5INH-0342] | 1.54 µM | – |
| 0.8 µM | COc1ccc(NC(=O)NCc2ccccc2N)cc1OCCCC(C)C [Compound C5INH-0343] | 3.04 µM | – |
| 0.0102 µM | COc1ccc(CNC(=O)Nc2ccc(OC)c(OCCCC(C)C)c2)c(OC)c1 [Compound C5INH-0348] | 0.0725 µM | Kd (Human C5 [1]; SPR, human C5 immobilized, read-out: equilibrium dissociation constant for interaction with C5): < 0.02 µM |
| 1.21 µM | COc1ccc(NC(=O)N[C@@H](CO)c2ccccc2)cc1OCCc1cccs1 [Compound C5INH-0349] | 1.5 µM | – |
| 0.16 µM | COc1ccc(NC(=O)N[C@@H](CO)c2ccccc2)cc1OCCC1CCCCC1 [Compound C5INH-0350] | 0.653 µM | – |
| 0.7 µM | COc1ccc(C(CO)NC(=O)Nc2ccc(OC)c(OCCCC(C)C)c2)cc1OC (centres unmarked) [Compound C5INH-0352] | 2.95 µM | – |
| 0.58 µM | COc1ccc(NC(=O)NC(CO)c2ccc3[nH]ccc3c2)cc1OCCCC(C)C (centres unmarked) [Compound C5INH-0353] | 0.328 µM | – |
| 0.441 µM | COc1cc(CC(=O)O)c(NC(=O)N[C@H](CO)c2ccccc2)cc1OCCCC(C)C [Compound C5INH-0355] | 2.93 µM | – |
| 0.059 µM | COc1ccc(NC(=O)NC(CO)c2cccc3[nH]ccc23)cc1OCCCC(C)C (centres unmarked) [Compound C5INH-0356] | 0.111 µM | – |
| 0.052 µM | COc1ccc(NC(=O)NCc2ccnc3c2ccn3C)cc1OCCCC(C)C [Compound C5INH-0361] | 2.35 µM | – |
| 0.082 µM | COc1ccc(NC(=O)NC(CO)c2cccc3[nH]ncc23)cc1OCCCC(C)C (centres unmarked) [Compound C5INH-0366] | 0.762 µM | – |
| 0.102 µM | COc1ccc(NC(=O)N[C@@H](CO)c2ccccc2)cc1C(O)CCCC(C)C (some centres unmarked) [Compound C5INH-0367] | 0.475 µM | – |
| 0.104 µM | COc1ccc(NC(=O)NCc2cccc(N3CCN(C)CC3)c2)cc1OCCCC(C)C [Compound C5INH-0369] | 0.592 µM | – |
| 0.67 µM | COc1ccc(NC(=O)NC(CO)c2cccc(CNC(=O)OC(C)(C)C)c2)cc1OCCCC(C)C (centres unmarked) [Compound C5INH-0372] | 3.27 µM | – |
| 0.293 µM | COc1ccc(NC(=O)NC(CO)c2cccc(CN)c2)cc1OCCCC(C)C (centres unmarked) [Compound C5INH-0373] | 1.52 µM | – |
| 0.047 µM | COc1ccc(NC(=O)NCc2ccnc3c2ccn3CCN2CCCC2)cc1OCCCC(C)C [Compound C5INH-0377] | 0.156 µM | – |
| 0.499 µM | COc1ccc(NC(=O)NC(CO)c2cccc(CNCCN3CCOCC3)c2)cc1OCCCC(C)C (centres unmarked) [Compound C5INH-0379] | 3.63 µM | – |
| 0.12 µM | COCCOc1cc(CNC(=O)Nc2ccc(OC)c(OCCCC(C)C)c2)ccn1 [Compound C5INH-0381] | 1.04 µM | – |
| 0.181 µM | COc1ccc(NC(=O)NCc2ccnc(OCCN)c2)cc1OCCCC(C)C [Compound C5INH-0382] | 0.312 µM | – |
| 0.102 µM | COc1ccc(NC(=O)NCc2ccnc(OCCN(C)C)c2)cc1OCCCC(C)C [Compound C5INH-0383] | 0.293 µM | – |
| 0.81 µM | COCCOCCOc1cc(CNC(=O)Nc2ccc(OC)c(OCCCC(C)C)c2)ccn1 [Compound C5INH-0384] | 2.18 µM | – |
| 0.19 µM | COc1ccc(NC(=O)N2CCc3ccc(O)cc3C2)cc1OCCCC(C)C [Compound C5INH-0385] | 1.28 µM | – |
| 0.32 µM | COc1ccc(C2CCCN2C(=O)Nc2ccc(OC)c(OCCCC(C)C)c2)cc1 (centres unmarked) [Compound C5INH-0387] | 0.577 µM | – |

The next lines start with the molecule.

| Compound | Kd (Human C5 [1]; [5]) | IC50 (purified human C5; [4]) | also measured |
| --- | --- | --- | --- |
| COc1ccc(OC)c(CNC(=O)Nc2ccc(OC)c(OCCCC(C)C)c2)c1 [Compound C5INH-0296] | 0.02 µM | 0.68 µM | – |
| COc1cc(F)ccc1CNC(=O)Nc1ccc(OC)c(OCCCC(C)C)c1 [Compound C5INH-0298] | 0.55 µM | 0.269 µM | – |
| COc1ccc(NC(=O)NCc2cccc(C(=N)N)c2)cc1OCCCC(C)C [Compound C5INH-0303] | 0.71 µM | 2.94 µM | – |
| COc1ccc(NC(=O)NCc2cccnc2OC)cc1OCCCC(C)C [Compound C5INH-0310] | 0.04 µM | 0.203 µM | – |
| COc1ccc(NC(=O)NCc2ccc(O)cc2O)cc1OCCCC(C)C [Compound C5INH-0311] | 0.02 µM | 0.027 µM | – |
| COc1ccc(NC(=O)NC(CO)c2cc(F)ccc2O)cc1OCCCC(C)C (centres unmarked) [Compound C5INH-0315] | 0.05 µM | 0.0137 µM | IC50 (purified human C5; 0.5 nM human C5, read-out: IC50): < 0.02 µM |
| COc1ccc(NC(=O)NC(CO)c2cccnc2OC)cc1OCCCC(C)C (centres unmarked) [Compound C5INH-0316] | 0.058 µM | 0.06 µM | – |
| COc1ccc(NC(=O)NCc2cccc3nc[nH]c23)cc1OCCCC(C)C [Compound C5INH-0317] | 0.19 µM | 0.319 µM | – |
| COc1ccc(NC(=O)NCc2ccc(OCCN(C)C)cc2)cc1OCCCC(C)C [Compound C5INH-0318] | 0.313 µM | 0.251 µM | – |
| COc1ccc(NC(=O)NCc2cccc(CN3CCCC3=O)c2)cc1OCCCC(C)C [Compound C5INH-0323] | 0.731 µM | 1.92 µM | – |
| COc1ccc(NC(=O)NCc2c(F)cccc2OC)cc1OCCCC(C)C [Compound C5INH-0326] | 0.26 µM | 0.784 µM | – |
| COc1ccc(NC(=O)NCc2cncs2)cc1OCCCC(C)C [Compound C5INH-0329] | 3.2 µM | 4.01 µM | – |
| COc1ccc(NC(=O)NCc2ccc3c(c2)OCO3)cc1OCCCC(C)C [Compound C5INH-0330] | 2.9 µM | 2.66 µM | – |
| COc1ccc(NC(=O)NCc2ccnc(N)c2)cc1OCCCC(C)C [Compound C5INH-0333] | 0.098 µM | 0.442 µM | – |
| COCCOc1ccccc1CNC(=O)Nc1ccc(OC)c(OCCCC(C)C)c1 [Compound C5INH-0335] | 0.18 µM | 2.09 µM | – |
| COc1ccc(NC(=O)N[C@@H](CO)c2ccccc2)cc1NCCCC(C)C [Compound C5INH-0336] | 0.164 µM | 0.473 µM | – |
| COc1ccc(NC(=O)NCc2ccccc2OCCC2CCOC2)cc1OCCCC(C)C (centres unmarked) [Compound C5INH-0338] | 0.195 µM | 4.37 µM | – |
| CCOc1ccccc1CNC(=O)Nc1ccc(OC)c(OCCCC(C)C)c1 [Compound C5INH-0339] | 0.052 µM | 0.878 µM | – |
| CCCCCOc1cc(N2CC[C@H](C)N(Cc3ccnc4c3c(Cl)cn4CC(=O)N3CCO[C@H](COC)C3)C2=O)ccc1OC [SC0127] | – | – | IC50 (Human C5 [2]): 0.0017 µM; solubility kinetic [3]: < 10 µM |
| COc1cc(CC(=O)N2CCN(C)CC2)ccc1CN1C(=O)N(c2ccc(OC)c(OCCCC3CC3)c2)CC[C@@H]1C [SC0137] | – | – | IC50 (Human C5 [2]): 0.0018 µM; solubility kinetic [3]: 275 µM (≈ 159 µg/mL) |
| COc1cc(CC(=O)N2CCNC(=O)C2)ccc1CN1CC(C)CN(c2ccc(OC)c(OCCCC3CC3)c2)C1=O (centres unmarked) [SC0158] | – | – | IC50 (Human C5 [2]): 0.0027 µM; solubility kinetic [3]: 16 µM (≈ 9.26 µg/mL) |
| COc1cc(CCN2CCS(=O)(=O)CC2)ccc1CN1C(=O)N(c2ccc(OC)c(OCCCC3CC3)c2)CC[C@@H]1C [SC0162] | – | – | IC50 (Human C5 [2]): 0.0028 µM; solubility kinetic [3]: < 10 µM |
| CCCCCOc1cc(N2CC[C@@H](C)N(Cc3cccc4[nH]cc(Cl)c34)C2=O)ccc1OC [SC0167] | – | – | IC50 (Human C5 [2]): 0.0032 µM; solubility kinetic [3]: < 10 µM |
| CCCCCOc1cc(N2CC(C(N)=O)CN(Cc3ccc(CC(=O)N(C)C)cc3OC)C2=O)ccc1OC (centres unmarked) [SC0204] | – | – | IC50 (Human C5 [2]): 0.0109 µM; solubility kinetic [3]: 465 µM (≈ 251 µg/mL) |
